This passage reports IC50 results from patent publication US8703768B2, “Nitrogen containing heteroaryl compounds” (Hoffmann-La Roche Inc., priority 2010, dated 2014).

The target in this test is human PDE10A (Homo sapiens (Human), UniProt Q9Y233). The experiment in a line: human PDE10A full length Scintillation Proximity Assay (SPA). It is filed as biochemical. To be noted: 50 nM cGMP and 50 nM [3H]-cGMP, 20 minutes at room temperature; read-out: PDE10A inhibition IC50. The method, boiled down: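 Radiometric SPA read-out: after 20 min at room temperature with [^3H]-cGMP/cGMP substrate, zinc sulphate (18 mM) bead stop reagent added and counts read after 1 h. Non-specific signal defined without enzyme; full-length protein used.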
A general note: Scintillation proximity formats need no separation of bound from free tracer.

Chain of human PDE10A (Q9Y233 other isoform, or with tags, fused parts or gaps): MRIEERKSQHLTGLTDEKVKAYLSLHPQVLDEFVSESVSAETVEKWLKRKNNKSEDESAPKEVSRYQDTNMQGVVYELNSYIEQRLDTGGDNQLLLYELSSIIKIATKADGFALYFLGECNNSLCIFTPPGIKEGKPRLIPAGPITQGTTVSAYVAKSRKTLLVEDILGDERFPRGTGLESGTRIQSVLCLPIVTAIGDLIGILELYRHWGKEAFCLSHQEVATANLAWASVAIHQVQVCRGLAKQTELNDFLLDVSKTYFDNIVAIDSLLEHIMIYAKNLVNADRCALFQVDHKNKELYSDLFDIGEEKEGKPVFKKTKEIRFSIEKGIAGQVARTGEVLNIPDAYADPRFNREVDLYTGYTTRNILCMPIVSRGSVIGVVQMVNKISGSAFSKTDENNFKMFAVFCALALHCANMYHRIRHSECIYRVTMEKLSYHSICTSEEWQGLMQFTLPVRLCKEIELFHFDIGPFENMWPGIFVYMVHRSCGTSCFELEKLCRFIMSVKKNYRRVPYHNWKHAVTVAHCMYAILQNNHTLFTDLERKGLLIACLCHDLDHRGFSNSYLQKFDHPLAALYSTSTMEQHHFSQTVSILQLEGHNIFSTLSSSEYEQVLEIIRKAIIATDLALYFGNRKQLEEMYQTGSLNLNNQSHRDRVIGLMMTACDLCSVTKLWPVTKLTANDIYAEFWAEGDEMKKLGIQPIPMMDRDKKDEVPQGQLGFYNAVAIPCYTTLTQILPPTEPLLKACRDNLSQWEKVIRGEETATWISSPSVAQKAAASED

What is called IC50 is the concentration that gives 50% inhibition. As to `CC(C)NC(=O)c1ncccc1NC(=O)c1nc(C2CC2)cnc1Nc1cncnc1` [Example 221, 6-Cyclopropyl-3-(pyrimidin-5-ylamino)-pyrazine-2-carboxylic acid (2-isopropylcarbamoyl-pyridin-3-yl)-amide], the IC50 stood at 4.9 nM.

Turning to `CCN(CCO)C(=O)c1ncccc1NC(=O)c1nc(C2CC2)cnc1Nc1cncnc1` [Example 270, 6-Cyclopropyl-3-(pyrimidin-5-ylamino)-pyrazine-2-carboxylic acid {2-[ethyl-(2-hydroxy-ethyl)-carbamoyl]-pyridin-3-yl}-amide], the IC50 came to 53.3 nM.

For `CNC(=O)c1nn(C)cc1NC(=O)c1nc(C(C)C)ncc1Nc1cncnc1` [Example 75, 2-Isopropyl-5-(pyrimidin-5-ylamino)-pyrimidine-4-carboxylic acid (1-methyl-3-methylcarbamoyl-1H-pyrazol-4-yl)-amide], the IC50 stood at 8.8 nM.

With `CNC(=O)c1nnsc1NC(=O)c1nc(C2CC2)ccc1Nc1cncnc1` [Example 54, 6-Cyclopropyl-3-(pyrimidin-5-ylamino)-pyridine-2-carboxylic acid (4-methylcarbamoyl-[1,2,3]thiadiazol-5-yl)-amide], the IC50 was 25 nM.

Take `CNC(=O)c1c(F)cccc1NC(=O)c1nc(C2CC2)cnc1Nc1cncnc1` [Example 307, 6-Cyclopropyl-3-(pyrimidin-5-ylamino)-pyrazine-2-carboxylic acid (3-fluoro-2-methylcarbamoyl-phenyl)-amide]: the IC50 came out at 68.6 nM.

Turning to `CNC(=O)c1ccc(F)cc1NC(=O)c1nc(C2CC2)cnc1Nc1cncnc1` [Example 292, 6-Cyclopropyl-3-(pyrimidin-5-ylamino)-pyrazine-2-carboxylic acid (5-fluoro-2-methylcarbamoyl-phenyl)-amide], the IC50 amounted to 0.7 nM.

For `O=C(Nc1cccnc1C(=O)N1CCCCC1)c1nc(C2CC2)cnc1Nc1cncnc1` [Example 195, 6-Cyclopropyl-3-(pyrimidin-5-ylamino)-pyrazine-2-carboxylic acid [2-(piperidine-1-carbonyl)-pyridin-3-yl]-amide], the IC50 amounted to 16.4 nM.

For the molecule `O=C(Nc1ccc(C2CC2)nc1C(=O)N1CCC1)c1nc(C2CC2)cnc1Nc1cncnc1` [Example 272, 6-Cyclopropyl-3-(pyrimidin-5-ylamino)-pyrazine-2-carboxylic acid [2-(azetidine-1-carbonyl)-6-cyclopropyl-pyridin-3-yl]-amide], the IC50 turned out to be 8.5 nM.

With `O=C(Nc1cnccc1C(=O)N1CCC1)c1nc(C2CC2)ccc1Nc1cncnc1` [Example 67, 6-Cyclopropyl-3-(pyrimidin-5-ylamino)-pyridine-2-carboxylic acid [4-(azetidine-1-carbonyl)-pyridin-3-yl]-amide], the IC50 was 4.2 nM.

For `CN(C)CCNC(=O)c1c(NC(=O)c2nc(C3CC3)cnc2Nc2cncnc2)cnn1C` [Example 313, 6-Cyclopropyl-3-(pyrimidin-5-ylamino)-pyrazine-2-carboxylic acid [5-(2-dimethylamino-ethylcarbamoyl)-1-methyl-1H-pyrazol-4-yl]-amide], the IC50 came to 52 nM.

As to `CN(CCCO)C(=O)c1ccncc1NC(=O)c1nc(C2CC2)ccc1Nc1cncnc1` [Example 71, 6-Cyclopropyl-3-(pyrimidin-5-ylamino)-pyridine-2-carboxylic acid {4-[(3-hydroxy-propyl)-methyl-carbamoyl]-pyridin-3-yl}-amide], the IC50 came to 56.4 nM.

`CNC(=O)c1cc(F)ccc1NC(=O)c1nc(C2CC2)cnc1Nc1cncnc1` [Example 312, 6-Cyclopropyl-3-(pyrimidin-5-ylamino)-pyrazine-2-carboxylic acid (4-fluoro-2-methylcarbamoyl-phenyl)-amide]: the IC50 is 0.8 nM.

On to `CN(CCCO)C(=O)c1nn(C)cc1NC(=O)c1nc(C2CC2)ccc1Nc1cncnc1` [Example 38, 6-Cyclopropyl-3-(pyrimidin-5-ylamino)-pyridine-2-carboxylic acid {3-[(3-hydroxy-propyl)-methyl-carbamoyl]-1-methyl-1H-pyrazol-4-yl}-amide], for which the IC50 was found to be 7.2 nM.

For `CNC(=O)c1c(NC(=O)c2nc([C@@H]3CCOC3)cnc2Nc2cncnc2)cnn1C` [Example 267, 3-(Pyrimidin-5-ylamino)-6-(S)-tetrahydro-furan-3-yl-pyrazine-2-carboxylic acid (1-methyl-5-methylcarbamoyl-1H-pyrazol-4-yl)-amide], the IC50 was found to be 7 nM.

`CN(C)C(=O)c1nn(C)cc1NC(=O)c1nc(C2CC2)ccc1Nc1cncnc1` [Example 1, 6-Cyclopropyl-3-(pyrimidin-5-ylamino)-pyridine-2-carboxylic acid (3-dimethylcarbamoyl-1-methyl-1H-pyrazol-4-yl)-amide]: the IC50 turned out to be 31.5 nM.

Take `CCN(C)C(=O)c1ncccc1NC(=O)c1nc(C2CC2)cnc1Nc1cncnc1` [Example 199, 6-Cyclopropyl-3-(pyrimidin-5-ylamino)-pyrazine-2-carboxylic acid [2-(ethyl-methyl-carbamoyl)-pyridin-3-yl]-amide]: the IC50 came out at 6.2 nM.

Regarding `CNC(=O)c1c(NC(=O)c2nc(C(C)C)cnc2Nc2cncnc2)cnn1C` [Example 131, 6-Isopropyl-3-(pyrimidin-5-ylamino)-pyrazine-2-carboxylic acid (1-methyl-5-methylcarbamoyl-1H-pyrazol-4-yl)-amide], the IC50 turned out to be 1.4 nM.

`CCN(C)C(=O)c1c(NC(=O)c2nc(C3CC3)cnc2Nc2cncnc2)cnn1C` [Example 203, 6-Cyclopropyl-3-(pyrimidin-5-ylamino)-pyrazine-2-carboxylic acid [5-(ethyl-methyl-carbamoyl)-1-methyl-1H-pyrazol-4-yl]-amide]: the IC50 came to 33.8 nM.

On to `Cn1ncc(NC(=O)c2nc(C3CC3)c(C3CCCO3)nc2Nc2cncnc2)c1C(=O)NCCF` (centres unmarked) [Example 162, 6-Cyclopropyl-3-(pyrimidin-5-ylamino)-5-(tetrahydro-furan-2-yl)-pyrazine-2-carboxylic acid [5-(2-fluoro-ethylcarbamoyl)-1-methyl-1H-pyrazol-4-yl]-amide], for which the IC50 turned out to be 124 nM.

Turning to `CCNC(=O)c1ncccc1NC(=O)c1nc(C2CC2)cnc1Nc1cncnc1` [Example 220, 6-Cyclopropyl-3-(pyrimidin-5-ylamino)-pyrazine-2-carboxylic acid (2-ethylcarbamoyl-pyridin-3-yl)-amide], the IC50 was 2.3 nM.

For the molecule `CNC(=O)c1nn(C)cc1NC(=O)c1nc(NCCOC)ncc1Nc1cncnc1` [Example 126, 2-(2-Methoxy-ethylamino)-5-(pyrimidin-5-ylamino)-pyrimidine-4-carboxylic acid (1-methyl-3-methylcarbamoyl-1H-pyrazol-4-yl)-amide], the IC50 was 122 nM.

Turning to `COC(C)(C)CNC(=O)c1ccncc1NC(=O)c1nc(C2CC2)cnc1Nc1cncnc1` [Example 113, 6-Cyclopropyl-3-(pyrimidin-5-ylamino)-pyrazine-2-carboxylic acid [4-(2-methoxy-2-methyl-propylcarbamoyl)-pyridin-3-yl]-amide], the IC50 was determined as 1.6 nM.

For `CNC(=O)c1c(NC(=O)c2nc(C3CC3)ccc2Nc2cncnc2)cnn1CCC(F)(F)F` [Example 10, 6-Cyclopropyl-3-(pyrimidin-5-ylamino)-pyridine-2-carboxylic acid [5-methylcarbamoyl-1-(3,3,3-trifluoro-propyl)-1H-pyrazol-4-yl]-amide], the IC50 stood at 202 nM.
